# Laboratory results from ChEMBL document CHEMBL2375293, “Identification of benzofurano[3,2-d]pyrimidin-2-ones, a new series of HIV-1 nucleotide-competing reverse transcriptase inhibitors” (Bioorg Med Chem Lett, 2013).
# What was measured:
# [1] = Antiviral activity against wild type HIV1 BH10 infected in human C8166 cells after 3 days by luciferase reporter gene assay; assay type: functional, cell-based, Human immunodeficiency virus type 1 BH10; settings: Human immunodeficiency virus 1, C8166, 72 h
# [2] = Inhibition of HIV1 BH10 reverse transcriptase using poly(rA)/oligo(dT)15 as substrate after 60 mins by fluorescence assay; set-up: species or system Human immunodeficiency virus type 1 BH10
# [3] = Cytotoxicity against human C8166 cells assessed as inhibition of cell viability after 3 days by MTT assay; assay type: cell-based
# [4] = Cytotoxicity against human C8166 cells assessed as inhibition of cell viability at CC50 after 3 days by MTT assay; assay type: cell-based; settings: read-out: INH
# [5] = system: Human immunodeficiency virus type 1 BH10; test: Selectivity ratio of EC50 for HIV1 BH10 harboring reverse transcriptase Y115F/M184V double mutant to EC50 for wild type HIV1 BH10; assay type: functional
# [6] = Apparent permeability across human Caco2 cells at 10 uM by LC-MS/MS analysis; assay type: ADME, cell-based; settings: Caco-2
# [7] = system: Human immunodeficiency virus type 1 BH10; test: Selectivity ratio of EC50 for HIV1 BH10 harboring reverse transcriptase K65R mutant to EC50 for wild type HIV1 BH10; assay type: functional
# [8] = Ratio of CC50 for human C8166 cells to EC50 for wild type HIV1 BH10 infected in human C8166 cells
# [9] = Ratio of EC50 for wild type HIV1 BH10 infected in human C8166 cells in presence of serum to EC50 for wild type HIV1 BH10 infected in human C8166 cells in absence of serum; assay type: functional, Human immunodeficiency virus type 1 BH10
# [10] = Solubility of the compound in phosphate buffer at pH 2 after 24 hrs by LC-MS analysis; assay type: physicochemical
# [11] = Half life in Sprague-Dawley rat liver microsomes at 1 uM by LC-MS/MS analysis; assay type: ADME, Microsome
# [12] = system: Human immunodeficiency virus type 1 BH10; test: Selectivity ratio of EC50 for HIV1 BH10 harboring reverse transcriptase M184V mutant to EC50 for wild type HIV1 BH10; assay type: functional
# [13] = n-Octanol-phosphate buffer partition coefficient, log D of the compound at 0.5 mg after 24 hrs by LC-MS analysis; assay type: physicochemical
# [14] = system: Human immunodeficiency virus type 1 BH10; test: Selectivity ratio of EC50 for HIV1 BH10 harboring reverse transcriptase K103N/Y181C double mutant to EC50 for wild type HIV1 BH10; assay type: functional
# [15] = Half life in human liver microsomes at 1 uM by LC-MS/MS analysis; assay type: ADME, Microsome
# [16] = Solubility of the compound in phosphate buffer at pH 6.8 after 24 hrs by LC-MS analysis; assay type: physicochemical
# [17] = system: Human immunodeficiency virus type 1 BH10; test: Selectivity ratio of EC50 for HIV1 BH10 harboring reverse transcriptase Y115F mutant to EC50 for wild type HIV1 BH10; assay type: functional
Compound,EC50 [1],IC50 [2],CC50 at 72 h [3],also measured
COCCn1c(=O)nc(-c2ccc(OCCN(C)C)cc2)c2oc3ccccc3c21,14000 nM,630 nM,,
CCNCC(=O)Nc1ccc(-c2nc(=O)n(CCOC)c3c2oc2cc(-c4ccc(CN(C)C)cc4)ccc23)cc1,53 nM,7.4 nM,1000 nM,
CCNCC(=O)Nc1ccc(-c2nc(=O)n(CCOC)c3c2oc2ccc(-c4ccc(CN(C)C)cc4)cc23)cc1,94 nM,12 nM,3900 nM,
O=c1nc(-c2ccccc2)c2oc3ccc(Cl)cc3c2n1CCN1CCC(F)(F)C1,2900 nM,320 nM,> 4500 nM,
CNC1CCN(c2ccc(-c3nc(=O)n(CCOC)c4c3oc3ccc(Cl)cc34)cn2)C1 (centres undefined),210 nM,40 nM,4300 nM,
COCCn1c(=O)nc(-c2ccc(COCCN(C)C)cc2)c2oc3ccccc3c21,> 11000 nM,818 nM,,
CNCCNc1ccc(-c2nc(=O)n(CCOC)c3c2oc2ccc(Cl)cc23)cc1,87 nM,10 nM,960 nM,
O=c1nc(-c2ccccc2)c2oc3ccc(Cl)cc3c2n1CCN1CCOCC1,,6500 nM,,
CCNCC(=O)Nc1ccc(-c2nc(=O)n(CCOC)c3c2oc2ccc(Cl)cc23)cc1,550 nM,46 nM,3000 nM,
COCCn1c(=O)nc(-c2ccc(NC(=O)C(C)N(C)C)cc2)c2oc3ccccc3c21 (centres undefined),4400 nM,1400 nM,> 11000 nM,cytotoxicity at 72 h [4]: 14%
O=c1nc(-c2ccccc2)c2oc3ccc(Cl)cc3c2n1CCN1CCCC1,3700 nM,590 nM,> 7300 nM,cytotoxicity at 72 h [4]: 6%
COCCn1c(=O)nc(-c2ccc(NCCN3CCCC3)cc2)c2oc3ccccc3c21,2400 nM,120 nM,> 7400 nM,
CCNCC(=O)Nc1ccc(-c2nc(=O)n(CCOC)c3c2oc2ccc(-c4ccccc4)cc23)cc1,360 nM,33 nM,2300 nM,
COCCn1c(=O)nc(-c2ccc(NC(=O)CN3CCCC3)cc2)c2oc3ccccc3c21,1100 nM,390 nM,5950 nM,
CCNCc1nc2cc(-c3nc(=O)n(CCOC)c4c3oc3ccc(Br)cc34)ccc2n1C,540 nM,42 nM,> 4400 nM,cytotoxicity at 72 h [4]: 20%
CN(C)CC(=O)Nc1ccc(-c2nc(=O)n(C)c3c2oc2ccccc23)cc1,1600 nM,3100 nM,7700 nM,
CN1CCc2cc(-c3ccc4oc5c(-c6ccccc6)nc(=O)n(CCN6CCC(F)(F)C6)c5c4c3)ccc2C1,25 nM,20 nM,,Ratio EC50 [5]: 14.8; Papp at 10 µM [6]: 0.55 ×10⁻⁶ cm/s; Ratio EC50 [7]: 0.3; Ratio CC50/EC50 [8]: >46; Ratio EC50 [9]: 7.3; solubility at 24 h [10]: > 1000 µg/mL; half-life at 1 µM [11]: 0.1 h; Ratio EC50 [12]: 4.8; logD at 24 h [13]: 3.9; Ratio EC50 [14]: 1.7; half-life at 1 µM [15]: 0.317 h; solubility at 24 h [16]: < 0.1 µg/mL

Compound,EC50 [1],IC50 [2],CC50 at 72 h [3],also measured
CCNCC(=O)Nc1ccc(-c2nc(=O)n(CCOC)c3c2oc2cc(-c4ccc5c(c4)CCN(C)C5)ccc23)cc1,88 nM,8.6 nM,2100 nM,
O=c1nc(-c2ccccc2)c2oc3ccccc3c2n1CCN1CCCC1,11000 nM,4200 nM,18000 nM,
COCCn1c(=O)nc(-c2ccc(N3CCNCC3)cc2)c2oc3ccc(Cl)cc3c21,175 nM,10 nM,2700 nM,
COCCn1c(=O)nc(-c2ccnc(N3CCN(C)CC3)c2)c2oc3ccc(Br)cc3c21,,> 5000 nM,,
CCNCC(=O)Nc1ccc(-c2nc(=O)n(CCOC)c3c2oc2ccc(-c4ccc(CO)cc4)cc23)cc1,300 nM,34 nM,> 1300 nM,
Cn1c(=O)nc(-c2ccccc2)c2oc3ccccc3c21,,> 83000 nM,,
CCNCC(=O)Nc1ccc(-c2nc(=O)n(CCOC)c3c2oc2ccccc23)cc1,680 nM,73 nM,5100 nM,
COCCn1c(=O)nc(-c2ccc(N3CCN(C)CC3)nc2)c2oc3ccc(Cl)cc3c21,890 nM,75 nM,> 5800 nM,cytotoxicity at 72 h [4]: 37%
COCCn1c(=O)nc(-c2cnc(N3CCN(C)CC3)nc2)c2oc3ccccc3c21,690 nM,155 nM,> 9500 nM,cytotoxicity at 72 h [4]: 40%
O=c1nc(-c2ccccc2)c2oc3ccccc3c2n1CCN1CCOCC1,,> 26000 nM,,
COCCn1c(=O)nc(-c2ccc(NC(=O)CN(C)C)cc2)c2oc3ccccc3c21,3600 nM,1200 nM,> 11000 nM,cytotoxicity at 72 h [4]: 15%
NC(=O)C1CCCN1CCn1c(=O)nc(-c2ccccc2)c2oc3ccc(Cl)cc3c21 (centres undefined),2600 nM,650 nM,> 6700 nM,
CCNCC(=O)Nc1ccc(-c2nc(=O)n(CCOC)c3c2oc2ccc(-c4ccc5c(c4)CCN(C)C5)cc23)cc1,30 nM,4.2 nM,4800 nM,Ratio EC50 [5]: 3.3; Papp at 10 µM [6]: < 0.1 ×10⁻⁶ cm/s; Ratio EC50 [7]: 0.1; Ratio CC50/EC50 [8]: 137; Ratio EC50 [9]: 1.5; solubility at 24 h [10]: > 822 µg/mL; half-life at 1 µM [11]: 2.33 h; Ratio EC50 [12]: 1.1; logD at 24 h [13]: 2.4; Ratio EC50 [17]: 2; Ratio EC50 [14]: 1.1; half-life at 1 µM [15]: 1.55 h; solubility at 24 h [16]: 650 µg/mL
COCCn1c(=O)nc(-c2ccc(N3CCN(C)CC3)cc2)c2oc3ccc(Cl)cc3c21,430 nM,24 nM,> 4500 nM,cytotoxicity at 72 h [4]: 18%
CN1CCc2cc(-c3ccc4oc5c(-c6ccccc6)nc(=O)n(CCN6CCCC6C(N)=O)c5c4c3)ccc2C1 (centres undefined),52 nM,5.9 nM,,Ratio EC50 [5]: 14.2; Papp at 10 µM [6]: 0.17 ×10⁻⁶ cm/s; Ratio EC50 [7]: 0.3; Ratio CC50/EC50 [8]: >127; Ratio EC50 [9]: 8.4; solubility at 24 h [10]: 781 µg/mL; half-life at 1 µM [11]: 1 h; Ratio EC50 [12]: 5.8; logD at 24 h [13]: 3; Ratio EC50 [14]: 1.7; half-life at 1 µM [15]: 1.22 h; solubility at 24 h [16]: 725 µg/mL
CCNCC(=O)Nc1ccc(-c2nc(=O)n(CCOC)c3c2oc2ccc(-c4cccnc4)cc23)cc1,200 nM,27 nM,> 5100 nM,cytotoxicity at 72 h [4]: 33%
COCCn1c(=O)nc(-c2ccc(C(=O)NCCN(C)C)cc2)c2oc3ccccc3c21,> 9300 nM,945 nM,,
